Values quoted from earlier work in patent US11014971B2, “Peptibodies, compositions thereof, and methods of treating atrial fibrillation” (University of South Florida, priority 2016, dated 2021).

Legend:
IKACh = biological target: T1, IKACh (Homo sapiens, UniProt P48544+P48549)
T1 sequence (P48549 1-501): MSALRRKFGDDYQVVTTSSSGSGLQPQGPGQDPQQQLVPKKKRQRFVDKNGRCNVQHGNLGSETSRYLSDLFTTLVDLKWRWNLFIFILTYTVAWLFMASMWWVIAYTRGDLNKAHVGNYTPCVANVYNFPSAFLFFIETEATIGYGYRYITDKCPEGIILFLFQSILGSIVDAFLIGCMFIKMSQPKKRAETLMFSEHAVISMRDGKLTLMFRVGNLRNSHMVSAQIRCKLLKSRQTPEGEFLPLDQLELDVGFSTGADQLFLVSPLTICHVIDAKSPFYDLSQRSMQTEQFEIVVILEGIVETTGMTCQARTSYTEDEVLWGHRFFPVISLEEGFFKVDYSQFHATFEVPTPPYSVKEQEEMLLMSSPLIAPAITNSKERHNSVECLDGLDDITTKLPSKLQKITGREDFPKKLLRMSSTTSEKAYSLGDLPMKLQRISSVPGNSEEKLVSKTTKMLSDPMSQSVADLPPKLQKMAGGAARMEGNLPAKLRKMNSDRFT
T1 sequence (P48544 1-419): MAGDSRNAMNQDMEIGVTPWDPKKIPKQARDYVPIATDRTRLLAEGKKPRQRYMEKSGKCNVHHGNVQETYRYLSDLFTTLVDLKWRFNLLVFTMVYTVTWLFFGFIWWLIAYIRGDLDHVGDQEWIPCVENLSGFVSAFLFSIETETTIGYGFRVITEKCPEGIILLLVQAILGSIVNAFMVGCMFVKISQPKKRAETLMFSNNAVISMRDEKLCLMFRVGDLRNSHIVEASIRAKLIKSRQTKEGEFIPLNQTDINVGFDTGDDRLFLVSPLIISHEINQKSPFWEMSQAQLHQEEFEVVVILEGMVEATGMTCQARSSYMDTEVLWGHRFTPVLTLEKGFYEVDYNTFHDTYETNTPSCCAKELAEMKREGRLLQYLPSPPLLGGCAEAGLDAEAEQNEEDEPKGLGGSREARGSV

[1] = tested on: paroxysmal AF and atrial flutter in patients
[2] = tested on: atrial action potential in a normal heart

Compound | Concentrations at which IKACh is selectively inhibited (IKACh) | Reversion of paroxysmal AF in patients ([1]; paroxysmal AF) | Reversion of atrial flutter in patients ([1]; atrial flutter) | Effect on the action potential duration in normal atria [2]
Cc1cc(CO)nc2cc3c(cc12)OC(C)(C)[C@H](O)[C@H]3NCCc1ccccc1 [NTC-801] | submicromolar | failed to revert | – | –
Cc1cc(C(=O)N(C)[C@H](CN2CC(O)C2)C(C)C)ccc1F [AZD2927] | submicromolar | – | failed to revert | –
Tertiapin | – | – | – | minimal effects
